Measured values published in US20230029194A1, “MACROCYLIC SULFONYL DERIVATIVES MCL-1 INHIBITORS” (Janssen Pharmaceutica NV, priority 2019, published 2023).
Like-named read-outs stand apart in the source and are kept apart here.

Assays:
[1] = target: Myeloid Cell Leukemia 1 (Mcl-1) (Homo sapiens, UniProt Q07820); assay: Terbium labeled Mcl-1 HTRF binding assay utilizing the Cy5-labeled BIM BH3 peptide
Experimental: Terbium labeled Myeloid Cell Leukemia 1(Mcl-1) homogeneous time-resolved fluorescence (HTRF) binding assay utilizing the BIM BH3 peptide (H2N—(C/Cy5Mal) WIAQELRRIGDEFN-OH) as the binding partner for Mcl 1.
This assay evaluated inhibition of the BH3 domain: Mcl-1 interaction by measuring the displacement of Cy5-labeled BIM BH3 peptide (H2N—(C/Cy5Mal) WIAQELRRIGDEFN-OH) in the HTRF assay format.
The following assay and stock buffers were prepared for use in the assay: (a) Stock buffer: 10 mM Tris—HCl, pH=7.5+150 mM NaCl, filtered, sterilized, and stored at 4° C.; and (b) 1X assay buffer, where the following ingredients were added fresh to stock buffer: 2 mM dithiothreitol (DTT), 0.0025% Tween-20, 0.1 mg/mL bovine serum albumin (BSA). The 1X Tb—Mcl-1+Cy5 Bim peptide solution was prepared by diluting the protein stock solution using the 1X assay buffer (b) to 25 pM Tb—Mcl-1 and 8 nM Cy5 Bim peptide.
Using the Acoustic ECHO, 100 nL of 100x test compound(s) were dispensed into individual wells of a white 384-well Perkin Elmer Proxiplate, for a final compound concentration of 1x and final DMSO concentration of 1%. Inhibitor control and neutral control (NC, 100 nL of 100% DMSO) were stamped into columns 23 and 24 of assay plate, respectively. Into each well of the plate was then dispensed 10 μL of the 1X Tb—Mcl-1+Cy5 Bim peptide solution. The plate was centrifuged with a cover plate at 1000 rpm for 1 minute, then incubated for 60 minutes at room temperature with plates covered. The TR-FRET signal was read on an BMG PHERAStar FSX MicroPlate Reader at room temperature using the HTRF optic module (HTRF: excitation: 337 nm, light source: laser, emission A: 665 nm, emission B: 620 nm, integration start: 60 μs, integration time: 400 μs).
The BMG PHERAStar FSX MicroPlate Reader was used to measure fluorescence intensity at two emission wavelengths—665nm and 620 nm—and report relative fluorescence units (RFU) for both emissions, as well as a ratio of the emissions (665 nm/620 nm)*10,000. The RFU values were normalized to percent inhibition as follows:
% inhibition=(((NC−IC)−(compound−IC))/(NC−IC))*100
where IC (inhibitor control, low signal)=mean signal of 1X Tb—MCl-1+Cy5 Bim peptide+inhibitor control or 100% inhibition of Mcl-1; NC (neutral control, high signal)=mean signal 1X Tb—MCl-1+Cy5 Bim peptide with DMSO only or 0% inhibition An 11-point dose response curve was generated to determine IC50 values (using GenData) based on the following equation:
Y=Bottom+(Top−Bottom)/(1+10((logIC50−X)*HillSlope))
where Y=% inhibition in the presence of X inhibitor concentration; Top=100% inhibition derived from the IC (mean signal of Mcl-1+inhibitor control); Bottom=0% inhibition derived from the NC (mean signal of Mcl-1+DMSO); Hillslope=Hill coefficient; and IC50=concentration of compound with 50% inhibition in relation to top/neutral control (NC).
In this assay [L]=8 nM and Kd=10 nM

[2] = test system: MOLP8 cells; assay: MOLP8 CellEvent Caspase-3/7 Green live-cell IncuCyte apoptosis assay; assay type: cell-based, human; settings: averaged, number of independent runs in brackets
Experimental: (§1) MCL-1 is a regulator of apoptosis and is highly over-expressed in tumor cells that escape cell death. The assay evaluates the cellular potency of small-molecule compounds targeting regulators of the apoptosis pathway, primarily MCL-1, Bfl-1, Bcl-2, and other proteins of the Bcl-2 family. Protein-protein inhibitors disrupting the interaction of anti-apoptotic regulators with BH3-domain proteins initiate apoptosis.
Activation of the apoptotic pathway was measured using the CellEvent™ Caspase-3/7 Green ReadyProbes™ Reagent (Thermo Fisher C10423, C10723). This assay produces a green fluorescent stain in cells that enter the apoptosis pathway. CellEvent® Caspase-3/7 Green reagent is a four amino acid peptide (DEVD) conjugated to a nucleic acid-binding dye that is non-fluorescent when not bound to DNA. The CellEvent® Caspase-3/7 Green reagent is intrinsically non-fluorescent, as the DEVD peptide inhibits binding of the dye to DNA. Upon activation of caspase-3/7 in apoptotic cells, the DEVD peptide is cleaved and the free dye can bind DNA, generating a bright green fluorescence. The activation of Caspase-3 and Caspase-7 is downstream of inhibition of MCL-1 or other apoptosis inhibiting proteins in cell lines that are dependent on them.
The live-cell readout on the IncuCyte permits tracking over time of the Caspase activation. […] The IncuCyte readout also allows one to normalize for cell number, as the suspension cells are hard to distribute evenly.
Signals were measured every 2 h for a duration of 22 h. The ratio of the Caspase mask to the Confluence mask, per image, as raw data, was calculated and the kinetic trace for every well was exported to Genedata Screener for analysis.
In Genedata Screener values for 6 h, 12 h, and 22 h from the kinetic traces were extracted. The values were normalized against negative controls (untreated cells). A standard dose-response analysis was performed on the normalized data.
The following data was reported at each of the following three aforementioned time points: (a) The dose-response curve, (b) The qAC50 and qAC50 Mode, and (c) Max Activity.
Cells were maintained in culture medium containing 10% Heat Inactivated (HI) FBS, 2 mM L-Glutamine and 50 μg/mL Gentamycin phenol red free RPMI-1640. Cells were split at 0.4 million/mL twice a week.
On Day 1, plates containing individual wells with test compounds at 10 mM concentration, 150 nL per well. The final concentrations range from […] to 10 pM compound (and no compound control) and compounds were thawed at room temperature for 1 hour. 25 μl of prewarmed medium was added into each well by multidrop (column 1, 3-22, 24), followed by addition of DMSO control (0.6% DMSO) in column 2. The plate was sealed using Breathe-Easy®) sealing membrane and shaken for 30 min at room temperature to dissolve the test compound(s) in medium. The plate was then kept in the incubator for 1 hour at 37° C., 5% CO2.
MOLP8 cells in medium at 40000/25 μl (20000/50 μl final in assay) were prepared with CellEvent™ Caspase-3/7 Green Detection Reagent at 4 μM (2 μM final in assay). Once prepared, the cells were added to the test compound plate in an amount of 20000 and the plate was immediately placed in the IncuCyte and imaging started using following settings: 10X objective, 2 s exposure time in green channel, interval of 2 h, acquisition stopped after 22 h.
For analysis in IncuCyte, a Basic Analysis protocol was defined to calculate the “confluence” and “caspase” areas from the “Phase” and “green” images, respectively, as follows: (a) Confluence: Segmentation Adjustment 1, Hole Fill 0, Adjust Size −2, No filters (b) Caspase: Top-Hat segmentation, Radius 10, Threshold 0.3 GCU, Edge Split On with sensitivity 0, Hole Fill 0, Adjust Size 1, and filter on a minimum Area of 20 μm. The analyzer is trained on a sufficient number of positive and negative control wells, as well as compound treated wells, verifying that the “confluence” layer detects both live and dead (condensed) cells. […]

[3] = test system: MOLP-8 human multiple myeloma cell line; assay: MOLP8 Caspase-Glo 3/7 luminescent assay; assay type: cell-based; settings: MOLP8 cells, 2 hours incubation, 10% FBS assay media, 30 μM highest conc.; averaged over all runs on all batches
From the text: as §1
The Caspase-Glo® 3/7 Assay is a luminescent assay that measures caspase-3 and -7 activities in purified enzyme preparations or cultures of adherent or suspension cells. The assay provides a proluminescent caspase-3/7 substrate, which contains the tetrapeptide sequence DEVD. This substrate is cleaved to release aminoluciferin, a substrate of luciferase used in the production of light. Addition of the single Caspase-Glo® 3/7 Reagent in an “add-mix-measure” format results in cell lysis, followed by caspase cleavage of the substrate and generation of a “glow-type” luminescent signal. This assay uses the MOLP-8 human multiple myeloma cell line, which is sensitive to MCL-1 inhibition.
Cell cultures were maintained between 0.2 and 2.0×10^6 cells/mL. The cells were harvested by collection in 50 mL conical tubes. The cells were then pelleted at 500 g for 5 mins before removing supernatant and resuspension in fresh pre-warmed culture medium. The cells were counted and diluted as needed.
The assay reagent was prepared by transferring the buffer solution to the substrate vial and mixing. The solution may be stored for up to 1 week at 4° C. with negligible loss of signal.
Compounds were delivered in assay-ready plates (Proxiplate) and stored at −20° C. Assays always include 1 reference compound plate containing reference compounds. The plates were spotted with 40 nL of compounds (0.5% DMSO final in cells; serial dilution; 30 μM highest conc. 1/3 dilution, 10 doses, duplicates). […] The plates were then sealed and measured after 30 minutes.
The activity of a test compound was calculated as percent change in apoptosis induction as follows: […]

[4] = Ki=IC50/(1+[L]/Kd), [L]=8 nM, Kd=10 nM, first table (before recalibration of the equipment)
[5] = values obtained after recalibration of the equipment, averaged over several runs
[6] = 6 h, read-out: MOLP8 Caspase 3/7 AC50 at 6 h
[7] = 12 h, read-out: MOLP8 Caspase 3/7 AC50 at 12 h
[8] = 22 h, read-out: MOLP8 Caspase 3/7 AC50 at 22 h

Chain of Myeloid Cell Leukemia 1 (Mcl-1) (Q07820 whole entry): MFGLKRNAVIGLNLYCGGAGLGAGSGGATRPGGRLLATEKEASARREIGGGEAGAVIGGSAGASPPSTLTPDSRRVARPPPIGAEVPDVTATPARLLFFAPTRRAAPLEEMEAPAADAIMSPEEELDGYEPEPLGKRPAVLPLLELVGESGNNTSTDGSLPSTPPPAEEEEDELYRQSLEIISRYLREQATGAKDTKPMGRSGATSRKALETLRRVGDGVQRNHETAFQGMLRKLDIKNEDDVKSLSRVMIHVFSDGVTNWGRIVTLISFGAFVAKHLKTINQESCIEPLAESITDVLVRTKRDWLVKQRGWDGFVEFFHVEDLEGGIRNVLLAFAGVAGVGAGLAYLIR

Cc1c2c(nn1C)CN(C)Cc1cc(n(C)n1)CS(=O)(=O)c1cc(c3ccccc3c1)OCCCc1c(C(=O)O)n(C)c3c-2c(Cl)ccc13 (single isomer, unassigned) [Compound 1]
Ki [1, 4]: 0.62 nM | Ki [1, 5]: 0.56 nM | AC50 [2, 6]: 4470 nM | AC50 [2, 7]: 5580 nM | AC50 [2, 8]: 5750 nM | AC50 [3]: 3900 nM

Cc1c2c(nn1C)CN(C)Cc1cc(n(C)n1)CS(=O)(=O)c1cc(c3ccccc3c1)OCCCc1c(C(=O)O)n(C)c3c-2c(Cl)ccc13 (single isomer, unassigned) [Compound 2]
Ki [1, 4]: 86.3 nM | Ki [1, 5]: 153 nM | AC50 [2, 6]: > 30200 nM | AC50 [2, 7]: > 30200 nM | AC50 [2, 8]: > 30200 nM

Cc1c2c(nn1C)CS(=O)(=O)Cc1cc(n(C)n1)CSc1cc(c3ccccc3c1)OCCCc1c(C(=O)O)n(C)c3c-2c(Cl)ccc13 (single isomer, unassigned) [Compound 3]
Ki [1, 5]: 0.04 nM | AC50 [2, 6]: 680 nM | AC50 [2, 7]: 620 nM | AC50 [2, 8]: 540 nM | AC50 [3]: 400 nM

Cc1c2c(nn1C)CS(=O)(=O)Cc1cc(n(C)n1)CSc1cc(c3ccccc3c1)OCCCc1c(C(=O)O)n(C)c3c-2c(Cl)ccc13 (single isomer, unassigned) [Compound 4]
Ki [1, 4]: 1.7 nM | Ki [1, 5]: 3 nM | AC50 [2, 6]: 18600 nM | AC50 [2, 7]: 20200 nM | AC50 [2, 8]: 21600 nM | AC50 [3]: 14100 nM
